Several values for one entry are separate records, joined by “and”; a condition that tells them apart may be missing. Identical values can stand only once. Toxic doses and inconclusive results are not listed. No stated cut-off is given here; in the data, active means T/C of 150% or more; inactive means T/C below 125%.
Test system: L1210 leukemia ip in BDF1 mice, survival T/C
Assay: NCI In Vivo Anticancer Drug Screen. Data for tumor model L1210 Leukemia (intraperitoneal) in B6D2F1 (BDF1) mice
Conditions: endpoint: mean survival time, higher = longer survival
Outline: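 Ratio derived from survival: compound-dosed mice over vehicle-dosed mice, all bearing a transplantable tumor.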

[1] = dose: 100.0 mg/kg/injection, schedule: Q01DX009 (ip), vehicle: saline with Tween-80
[2] = dose: 100.0 mg/kg/injection, schedule: Q04DX003 (ip), vehicle: saline
[3] = dose: 200.0 mg/kg/injection, schedule: Q01DX009 (ip), vehicle: saline with Tween-80
[4] = dose: 200.0 mg/kg/injection, schedule: Q04DX003 (ip), vehicle: saline
[5] = dose: 100.0 mg/kg/injection, schedule: Q04DX003 (ip), vehicle: saline with Tween-80
[6] = dose: 200.0 mg/kg/injection, schedule: Q04DX003 (ip), vehicle: saline with Tween-80

Measured: T/C

CCc1ccc2c(c1)N(CCCN(CCCl)CCCl)c1ccccc1S2
inactive: dose: 1.56 mg/kg/injection, schedule: Q01DX009 (ip), vehicle: saline with Tween-80 107 % of control | dose: 3.12 mg/kg/injection, schedule: Q01DX001 (ip), vehicle: saline with Tween-80 97 % of control | dose: 3.12 mg/kg/injection, schedule: Q01DX009 (ip), vehicle: saline with Tween-80 102 % of control | dose: 6.25 mg/kg/injection, schedule: Q01DX001 (ip), vehicle: saline with Tween-80 97 % of control | dose: 6.25 mg/kg/injection, schedule: Q01DX009 (ip), vehicle: saline with Tween-80 100 % of control | dose: 6.25 mg/kg/injection, schedule: Q04DX003 (ip), vehicle: saline with Tween-80 110 % of control | dose: 12.5 mg/kg/injection, schedule: Q01DX001 (ip), vehicle: saline with Tween-80 111 % of control | dose: 12.5 mg/kg/injection, schedule: Q01DX009 (ip), vehicle: saline with Tween-80 102 % of control | dose: 12.5 mg/kg/injection, schedule: Q04DX003 (ip), vehicle: saline with Tween-80 111 % of control | dose: 25.0 mg/kg/injection, schedule: Q04DX003 (ip), vehicle: saline with Tween-80 111 % of control | dose: 50.0 mg/kg/injection, schedule: Q04DX003 (ip), vehicle: saline with Tween-80 111 % of control

O=C1C=CC(=O)c2nc(-c3ccccn3)c(-c3ccccn3)nc21
inactive: dose: 1.56 mg/kg/injection, schedule: Q04DX003 (ip), vehicle: Klucel (hydroxypropylcellulose) (HPC) 92 % of control | dose: 3.12 mg/kg/injection, schedule: Q04DX003 (ip), vehicle: Klucel (hydroxypropylcellulose) (HPC) 93 % of control | dose: 6.25 mg/kg/injection, schedule: Q04DX003 (ip), vehicle: Klucel (hydroxypropylcellulose) (HPC) 90 % of control | dose: 18.0 mg/kg/injection, schedule: Q01DX009 (ip), vehicle: Klucel (hydroxypropylcellulose) (HPC) 101 % of control | dose: 28.0 mg/kg/injection, schedule: Q01DX009 (ip), vehicle: Klucel (hydroxypropylcellulose) (HPC) 100 % of control | dose: 40.0 mg/kg/injection, schedule: Q01DX009 (ip), vehicle: Klucel (hydroxypropylcellulose) (HPC) 93 % of control

CC1(C(=O)c2ccccc2)OC1c1ccccc1 (centres undefined)
inactive: dose: 100.0 mg/kg/injection, schedule: Q01DX009 (ip), vehicle: Klucel (hydroxypropylcellulose) (HPC) 98 % of control | dose: 200.0 mg/kg/injection, schedule: Q01DX009 (ip), vehicle: Klucel (hydroxypropylcellulose) (HPC) 104 % of control | dose: 400.0 mg/kg/injection, schedule: Q01DX009 (ip), vehicle: Klucel (hydroxypropylcellulose) (HPC) 103 % of control

Cn1c2c(c(=O)n(C)c1=O)NC1(N2)C(=O)Nc2ccccc21 (centres undefined)
inactive: dose: 100.0 mg/kg/injection, schedule: Q01DX001 (ip), vehicle: saline 101 % of control | dose: 200.0 mg/kg/injection, schedule: Q01DX001 (ip), vehicle: saline 98 % of control | dose: 400.0 mg/kg/injection, schedule: Q01DX001 (ip), vehicle: saline 101 % of control

S=C(Nc1ccccc1)NC1CCCCCC1
inactive: dose: 50.0 mg/kg/injection, schedule: Q01DX009 (ip), vehicle: saline with Tween-80 98 % of control and 92 % of control | [1] 94 % of control | [2] 97 % of control | [3] 90 % of control | [4] 94 % of control

CCCCCCCCNC(=O)C1OC(n2cnc3c(N)ncnc32)C2OC(C)(C)OC12 (centres undefined)
inactive: dose: 100.0 mg/kg/injection, schedule: Q01DX005 (ip), vehicle: saline with Tween-80 94 % of control | dose: 200.0 mg/kg/injection, schedule: Q01DX005 (ip), vehicle: saline with Tween-80 102 % of control

NCc1ccc(Cl)cc1Cl
inactive: dose: 100.0 mg/kg/injection, schedule: Q01DX009 (ip), vehicle: saline 103 % of control | dose: 200.0 mg/kg/injection, schedule: Q01DX009 (ip), vehicle: saline 108 % of control

CCC(CCl)NC1CCCCC1 (centres undefined)
inactive: dose: 75.0 mg/kg/injection, schedule: Q01DX001 (ip), vehicle: saline 106 % of control | dose: 150.0 mg/kg/injection, schedule: Q01DX001 (ip), vehicle: saline 106 % of control

CCCCCC#CC(=O)OCC
inactive: [1] 100 % of control | [3] 89 % of control

CCc1c(O)c2c(c(O)c1C(C)=O)C(=O)c1c(cc(O)c(C(=O)O)c1C(=O)O)C2=O
inactive: [5] 100 % of control | [6] 100 % of control

CCOC(=O)/C(O)=C\c1nc(OCC)nc(OCC)c1[N+](=O)[O-]
inactive: dose: 93.8 mg/kg/injection, schedule: Q04DX002 (ip), vehicle: Klucel (hydroxypropylcellulose) (HPC) 95 % of control | dose: 187.5 mg/kg/injection, schedule: Q04DX002 (ip), vehicle: Klucel (hydroxypropylcellulose) (HPC) 95 % of control | dose: 375.0 mg/kg/injection, schedule: Q04DX002 (ip), vehicle: Klucel (hydroxypropylcellulose) (HPC) 100 % of control

CN=C1N[N+]2=C(C)CCCC2S1 (centres undefined)
inactive: [2] 95 % of control | [4] 95 % of control

CC(=O)OCC1OC(C(N)=O)C(OC(C)=O)C1OC(C)=O (centres undefined)
inactive: dose: 100.0 mg/kg/injection, schedule: Q01DX001 (ip), vehicle: other 102 % of control | [5] 93 % of control | dose: 200.0 mg/kg/injection, schedule: Q01DX001 (ip), vehicle: other 98 % of control | [6] 104 % of control | dose: 400.0 mg/kg/injection, schedule: Q01DX001 (ip), vehicle: other 98 % of control | dose: 400.0 mg/kg/injection, schedule: Q04DX003 (ip), vehicle: saline with Tween-80 98 % of control
